Measurements: ChEMBL document CHEMBL3507680, “University of Dundee, Gates Library screen for HepG2 cell viability”

Assay: Human HepG2 cell viability assay in 384 well format
Type: toxicity, cell-based
Set-up: dose 125 nL, time 70.5 hour; cytotoxicity at 70.5 h: concentration not given beside the values
Conditions: HepG2 cells, read-out: Inhibition

SMILES | cytotoxicity at 70.5 h [%]
N#Cc1ccc(S(=O)(=O)N2CC(CC(=O)O)c3ccccc32)cc1 (stereo not given) | -3.42
CNS(=O)(=O)CC(=O)NC(C)Cc1cccc(Cl)c1 (stereo not given) | -2.05
CCN(Cc1noc(C(C)(C)C)n1)Cc1ccc(C#N)cc1F | -6.26
Cc1c(C(=O)NS(=O)(=O)c2ccsc2)cnn1CC(C)C | 4.87
CC(=O)NC(CC(=O)Nc1nc(C)c(C)s1)c1ccccc1 (stereo not given) | 0.551
CC(Cn1cccn1)NC(=O)N(C)Cc1ccsc1 (stereo not given) | -16.6
CC(Cn1ccnc1)NC(=O)N(C)Cc1ccsc1 (stereo not given) | -27.1
O=C1CCCN1c1cccc(CNCc2nc(-c3ccco3)no2)c1 | -17.4
CNC(=O)NC(=O)CCSCc1cc(Cl)cc2cccnc12 | -16.5
Cc1cc(C)cc(OCC(=O)N2CCCN(CC(N)=O)CC2)c1 | -16.4
NC(=O)NC(=O)CCSCc1cc(F)cc2cccnc12 | -29.1
CC(C)NC(=O)N(C)C1CCN(c2ccccc2Cl)C1=O (stereo not given) | -21.1
COCc1noc(-c2cc(Cl)c3c(c2)OCO3)n1 | -19.3
Cc1nccn1CCCNc1nccnc1C#N | 44.8
COc1ccccc1S(=O)(=O)Nc1cnc(O)cc1C | -10.5
CCN(CC)C(=O)COc1ccnc2cc(OC)ccc12 | -19.4
CC(C)c1nsc(N2CCS(=O)(=O)CC2)n1 | -22.3
Clc1cnc(NCc2ccccc2N2CCOCC2)nc1 | -14.4
CN(Cc1nccn1C)C(CO)c1cccc(Br)c1 (stereo not given) | -28.6
CC(Cn1cccn1)NCc1cnc(N2CCCC2)nc1 (stereo not given) | -3.66
CCC(C)(COc1ncccc1Cl)NCC(=O)Nc1ccc(Br)cn1 (stereo not given) | 38.6
O=S(=O)(CCNCCn1cccn1)c1ccccc1 | -18.7
CCC(C)(COc1ncccc1Cl)NCC(=O)NCC(C)C (stereo not given) | -30.2

SMILES | cytotoxicity at 70.5 h [%]
COc1cc(CNC(=O)NCCCF)cc(Br)c1OC | -2.35
CCc1nc(NS(=O)(=O)c2ccc(C)cc2Cl)no1 | -4.3
CCc1nc(NS(=O)(=O)c2cc(C)ccc2F)no1 | -8.12
COc1cccc(S(=O)(=O)CCN2CCCN(C(C)=O)CC2)c1 | 0.259
CC(=O)c1ccccc1C(=O)NCC1(CO)CC1 | 4.58
Cc1nc(C)n(CC2CCCCN2CCCS(=O)(=O)N(C)C)n1 (stereo not given) | 3.2
Cn1cc(S(=O)(=O)N2CCCC2CC(=O)c2cccs2)cn1 (stereo not given) | -9.81
CC(C)CCC(C)NC(=O)c1ccc(OCC(N)=O)cc1 (stereo not given) | -3.72
CCC(CNC(=O)c1ccc(=O)[nH]n1)N1CCc2ccccc2C1 (stereo not given) | -10.3
Cc1nc(CNC(=O)NCC(O)c2cccc(Cl)c2)cs1 (stereo not given) | 5.52
CCN(Cc1ccco1)C(=O)NCc1nnc2n1CCC2 | -13.2
c1ccc(-c2noc(CN3CCC(c4ccn[nH]4)CC3)n2)cc1 | -14.9
CC(=O)N1CCCN(C(=O)c2oc(Br)cc2C)CC1 | -3.38
Cc1ccc(C(O)CNC(=O)NCc2nc(C)cs2)cc1 (stereo not given) | -2.07
CC(=O)c1cccc(OCCCC(=O)N(C)CCc2ccncc2)c1 | -10.1
CC(CNC(=O)c1cccnc1Oc1cccnc1)N(C)C (stereo not given) | -8.64
O=S(=O)(CCNCc1ccc2c(c1)CCO2)N1CCOCC1 | 12.8
O=C(NCCOc1ccc(F)c(F)c1)NCc1cccc(CO)c1 | -9.23
CN(Cc1ccco1)Cc1ccccc1CNC(=O)c1ccncc1 | -8
CN(Cc1ccco1)Cc1ccccc1CNC(=O)c1ccc[nH]1 | -9.87
COc1ccc(OCC(=O)NS(=O)(=O)c2cc(F)ccc2F)cc1 | 20.8
Cc1c(I)cccc1C(=O)NCC1(CO)CC1 | -7.8
COc1ccc(C(CO)NC(=O)Nc2cccnc2)cc1 (stereo not given) | 12.6

SMILES | cytotoxicity at 70.5 h [%]
CC(CNC(=O)c1ccccc1Oc1cccnc1)N(C)C (stereo not given) | -6.12
Cc1nc(C)n(CC2CCCCN2CCS(C)(=O)=O)n1 (stereo not given) | 12.7
CCc1noc(CNc2cc(F)ccc2OCC2CCCO2)n1 (stereo not given) | -6.07
CCOC(C)c1nc(CN2CCN(c3nccc(C)n3)CC2)cs1 (stereo not given) | -8.29
Fc1cc(CNCc2ccc3c(c2)CCO3)ccc1N1CCOCC1 | -6.5
Cc1ccc(-c2nc(CN3CCOC(Cn4cccn4)C3)cs2)o1 (stereo not given) | -13.3
COc1ccc(F)cc1C(C)NC(=O)Nc1nnc(C)s1 (stereo not given) | -12.6
CCn1cc(C(=O)NC2CCN(S(C)(=O)=O)CC2)c2ccccc21 | -9.93
CC(=O)NCCNC(=O)c1cnc(-c2ccccc2)nc1 | -17.1
Cc1cc(CNC(=O)C2CCCCN2C(=O)OC(C)(C)C)no1 (stereo not given) | -10.1
N#Cc1ccnc(N2CCN(Cc3cccc(F)c3)CC2)c1 | -6.08
CC(C)c1cc(C(=O)N2CCN(Cc3ccsc3)CC2)n[nH]1 | -9.01
Cc1ccc(S(=O)(=O)N2CSCC2C(=O)N(C)C2CC2)cc1Cl (stereo not given) | -12.2
Cc1noc(C)c1CN1CCN(C(=O)Cn2cncn2)CC1 | -5.67
CCOC(=O)NC(CNC(=O)c1ncccn1)CC(C)C (stereo not given) | -7.23
CCOc1cccc(NS(=O)(=O)c2cc(C)c(C(=O)O)s2)c1 | 8.89
CCN1CCN(c2ccc(F)cc2C(C)NCc2ccncc2)CC1 (stereo not given) | -1.51
Cn1cc(N2CCC(NC(=O)c3c(F)cccc3F)C2=O)cn1 (stereo not given) | -2.48
CCC(CC)c1cc(CNC(=O)N2CCOCC2CC)on1 (stereo not given) | -10.6
CN(Cc1ccncc1)C(=O)Nc1cnn(CC2CCCO2)c1 (stereo not given) | -3.42
CN(C)c1ccc(CCCNC(=O)Nc2ccc(C#N)cc2)cc1 | 1.4
CC(C)(C)c1nnc(CN2CCN(S(C)(=O)=O)CC2)o1 | -2.04
Cc1ccc(CNC(=O)N2CCCCC2CCNS(C)(=O)=O)cc1 (stereo not given) | -8.15

SMILES | cytotoxicity at 70.5 h [%]
NC(=O)C1CCN(C(=O)NCc2ccccc2Cn2cncn2)CC1 | -3.83
O=C(NCCNC(=O)N1CCC(c2ccccc2)C1)C1CC1 (stereo not given) | -6.87
CC(C)CS(=O)(=O)CC(=O)N(C)Cc1ccc(OC(F)F)cc1 | -3.66
O=C(NCCCNCC1CNc2ccnn2C1)c1ccccc1 (stereo not given) | -12
O=C(c1cccnc1-n1cccn1)N1CCN(CC2CC2)CC1 | -11
CC(C(=O)NCc1ccnc(Oc2ccc(F)cc2)c1)n1cncn1 (stereo not given) | -9.56
Cc1nc(NC(=O)CN2CCc3c(nc(C(C)C)n3C)C2)sc1C | -7.61
CC(C)c1nc(CN(C)CC2CCN(CCO)CC2)no1 | -5.69
CCOc1cccc(C(C)NC(=O)N2CCC(C(N)=O)CC2)c1 (stereo not given) | -8.18
CC(C)NC(=O)COc1nc(C(C)C)no1 | 18
O=C(c1ccsc1)N1CCc2ncc(Cn3cncn3)n2CC1 | -14.2
C[C@@H]1CN(C(=O)[C@H]2CCCO2)C[C@]12CCN(c1ccsc1)C2=O | -11.7
CC(=O)N1CCCC2(C1)CN(C(=O)c1ccncc1)CCO2 (stereo not given) | -15.7
CC(=O)N1CCCC2(C1)CN(C(=O)Cc1ccccc1)CCO2 (stereo not given) | -15.1
C[C@@H]1CN(C(=O)c2cccc(F)c2)C[C@]12CCN(c1ccsc1)C2=O | -16.2
Cc1nc(NCC2CC2)nc2c1COCC21CCN(S(=O)(=O)C2CC2)C1 (stereo not given) | -15.4
C[C@H]1CN(C(=O)c2cscn2)C[C@@]12CCN(c1ccsc1)C2=O | -14.4
COCCC1COC2(CCN(C(=O)c3cccn3C)CC2)C1 (stereo not given) | -14.7
O=C(c1ccncn1)N1CCC[C@]2(C[C@H](OCC3CC3)CO2)C1 | -15.2
CCO[C@@H]1CCN(C(=O)c2ccnnc2)[C@@H]1Cc1cnn(C)c1 | 3.33
CO[C@@H]1CCN(C(=O)c2cnoc2C)[C@H]1Cc1ccccc1 | 2.59
CN1CCN(c2ncnc3c2CCN(C(=O)c2cccn2C)CC3)CC1 | 6.05
O=C(CC1CC1)N1CCC2(CCCN(c3ncccn3)C2)CC1 | -10.9

SMILES | cytotoxicity at 70.5 h [%]
COCC(=O)N1CCC2(CC1)CN(c1ncccn1)CCO2 | -10.1
CN(C)CCN1CC[C@@H]2[C@@H]1CCN2C(=O)c1cccc(Cl)c1 | -13.9
CN(Cc1cncnc1)[C@H]1CN(Cc2ccco2)[C@@H]2CCCO[C@@H]21 | -9.91
NC(=O)N1CCC2(CC1)CN(c1ncccn1)CCO2 | -7.64
CCO[C@@H]1CCN(C(=O)N(C)C)[C@@H]1Cc1cnn(C)c1 | -10.7
COCCN1C2(CCN(Cc3nccs3)C2)c2ccccc2S1(=O)=O (stereo not given) | -12.7
CN(C)CC(=O)N1CCC2(CC1)CN(c1ncccn1)CCO2 | 5.39
N#Cc1cccc(C(=O)N2CC[C@H]3[C@H]2CCN3CC2CCOCC2)c1 | 26.3
O=C(c1cccc(F)c1)N1CC[C@H]2[C@H]1CCN2CC1CCOCC1 | -6.77
CCCS(=O)(=O)N1C[C@H](N(C)Cc2ccco2)[C@@H]2OCCC[C@@H]21 | -6.06
O=C1NC2(CCN(c3ncccn3)CC2)CC1c1cccnc1 (stereo not given) | -7.58
CN(C)[C@@H]1CCN(C(=O)Cc2ccc(F)cc2)[C@H]1Cc1ccncc1 | -15.9
O=C(c1cccnc1)N1CCn2cc(CN3CCCC3)nc2C1 | -6.71
Cc1noc(C)c1CN1CCC[C@]2(C[C@@H](Oc3ccccn3)CO2)C1 | -0.591
CN(Cc1ccco1)[C@@H]1CN(CC2CCOCC2)C[C@@H]2CCCO[C@@H]21 | 4.38
CCOCC1CN(C(=O)Cc2ccccn2)Cc2c1cnn2C (stereo not given) | -7.19
Cc1cnc(N2CC[C@@H]3O[C@@H](COCc4ccccn4)CC[C@@H]32)nc1 | -8.03
c1ccc(O[C@@H]2CO[C@@]3(CCCN(CC4CCOCC4)C3)C2)nc1 | -8.71
O=C1[C@@H]2CCN(Cc3ccccn3)C[C@@H]2OCCN1c1ccccc1 | -4.44
CN(Cc1cccnc1)C1CC2(CCN(Cc3cccnc3)CC2)C1 | -13.8
Cc1noc(C)c1CN1CCN(Cc2cccnc2)c2ncccc2C1 | -6.13
COCCN1CCN(Cc2ccncc2)c2ncccc2C1 | -11
CN(Cc1ccco1)[C@@H]1CN(Cc2nccn2C)[C@@H]2CCCO[C@H]12 | -8.73
